The source of these data is patent US20080071116A1, “Modulators of Lysophosphatidic Acid (Lpa) Signaling and the Use Thereof” (THE BOARD OF REGENTS OF THE UNIVERSITY OF TEXAS SYSTEM, priority 2004, published 2008).

Each structure is given as a SMILES string.

In general, EC50 refers to the concentration needed to bring the measured effect to its halfway point.

Experiment [1] concerns PC-3 cells. In words: calcium mobilization assay in androgen insensitive prostate cancer PC-3 cells. It counts as cell-based, human. The conditions noted are these: Homo sapiens. As for the experimental part: (§1) The procedures for these calcium mobilization assays are as followed: OVCAR3 cells and PC-3 cells were cultured in RPMI 1640 medium with 10% FBS (fetal bovine serum). HT29 cells were cultured in DMEM (high glucose) medium with 10% FBS. All cells were cultured at about 37° C. in a humidified atmosphere with 5% CO2. After starvation in serum-free medium for about 12-24 hours, cells were harvested and loaded with about 1 μM of Indo-1 AM in serum-free medium for about 45 min at 37° C. Cells were washed in PBS and resuspended at 2×10^6 cells/ml in a [Ca^2+]i assay buffer (Sodium chloride, NaCl, about 140 mM, potassium chloride, KCl, about 2 mM, magnesium chloride, MgCl2, about 1 mM, calcium chloride, CaCl2, about 2 mM, in about 25 mM HEPES buffer at pH 7.4 with about 10 mM of glucose). Cytoplasmic [Ca^2+]i was determined at an excitation wavelength of about 331 nm and an emission wavelength of 410 nm using a fluorescence spectrophotometer (Hitachi, F-4000). Approximately 3×10^6 cells were used for [Ca^2+]l determination in a stirred quartz cuvette kept at about 37° C. OMPT or 18:1 LPA was dissolved in about 0.1% BSA/PBS solution and applied immediately to the cells. To test other LPA derivatives of the invention, cells were exposed to the derivatives for about 3 minutes or for a period of various times in time course related experiments before a LPA agonist, such as 18:1 LPA, OMPT, or other LPAs was applied into the cuvette.
(§2) The concentration of calcium mobilization giving the half-maximal response (EC50) was obtained from the concentration-response curve fitted to a sigmoidal logistic equation, with the maximal calcium response set to 100% using the GraphPad Prism. Maximal response value is expressed as mean +/−s.e.m. EC50 value is expressed with 95% confidence.
For orientation: Calcium assays in cells follow changes in intracellular calcium, usually with a dye or a luminescent sensor.

Experiment [2] relates to PC-3 cells. Kind of experiment: cellular proliferation and growth factor withdrawal-induced apoptosis. The class given is cell-based, human.
The subject of a further experiment is HT29 cells. In words: calcium mobilization assay in colon cancer HT29 cells. The conditions noted are these: HT29 cells. It counts as cell-based. As for the experimental part:
as §1, §2

The target of experiment [3] is T1, LPA1 receptor (Homo sapiens, UniProt Q92633). Kind of experiment: GTP[γ-35S] binding assay, HEK293 T membranes, LPA1. It counts as biochemical. Set-up: expressed in transfected cells; host or cells: HEK293 T cells (crude microsomal membranes). The conditions noted are these: HEK293 transfected with LPA1, FIG. 59A. Here is the method: (§3) OMPT also enhances GTP [γ-^35S] binding in the cell membrane of HEK293 T cells expressing LPA3. The procedures for these GTP [γ-^35S] binding assays involve co-transfection of HEK293 T cells with expression vectors encoding one of the receptors for LPA (LPA1, LPA2, or LPA3) or S1P (S1P3/Edg3) by calcium phosphate precipitation, together with plasmids encoding three G proteins (rat Gi2α, cow β1, and cow γ2). After about 48 hours, cells were harvested and crude microsomal membranes were prepared. Membranes containing about 5 μg of protein were incubated in 0.1 ml of GTP-binding buffer (50 mM Hepes, 100 mM NaCl, 10 mM MgCl2, pH7.5) having 5 μg of saponin, 0.1% fatty acid-free BSA, 10 μM GDP, 0.1 nM GTP[γ-^35S] (1200 Ci/mmole) together with indicated concentrations of LPA or OMPT for about 30 min at 30° C. Membranes were collected using a 96-well Brandel Cell Harvester (Gaithersburg, Md.), and bound radionuclide was determined using a Packard TopCount liquid scintillation counter.
T1 sequence (Q92633 whole entry): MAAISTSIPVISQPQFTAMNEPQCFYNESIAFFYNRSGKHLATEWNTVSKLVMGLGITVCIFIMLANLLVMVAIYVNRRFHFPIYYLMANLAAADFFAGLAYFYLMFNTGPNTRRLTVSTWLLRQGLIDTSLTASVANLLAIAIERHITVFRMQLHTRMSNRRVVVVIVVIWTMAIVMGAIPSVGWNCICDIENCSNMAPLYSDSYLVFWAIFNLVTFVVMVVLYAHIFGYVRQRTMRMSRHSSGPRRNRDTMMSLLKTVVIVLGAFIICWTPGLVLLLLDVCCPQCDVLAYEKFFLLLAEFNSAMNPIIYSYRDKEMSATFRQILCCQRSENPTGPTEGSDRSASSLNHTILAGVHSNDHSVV
On the technique in general: Binding of GTPγS marks nucleotide exchange on a G protein.

In experiment [4] the target is T1, LPA1 receptor. Kind of experiment: calcium mobilization in Sf9 insect cells expressing LPA1. The class given is cell-based.
A further experiment relates to OVCAR3 cells. Kind of experiment: calcium mobilization assay in ovarian cancer OVCAR3 cells. It counts as cell-based, human. The conditions noted are these: Homo sapiens, OVCAR-3; OVCAR3 cells; 95% confidence about 7.0 to about 11.5 nM. As for the experimental part:
as §1, §2

In the next experiment the target is T2, S1P3 receptor (Homo sapiens, UniProt Q99500).
T2 construct: expressed in transfected cells; host or cells: HEK293 T cells (crude microsomal membranes)
T2 sequence (Q99500 whole entry): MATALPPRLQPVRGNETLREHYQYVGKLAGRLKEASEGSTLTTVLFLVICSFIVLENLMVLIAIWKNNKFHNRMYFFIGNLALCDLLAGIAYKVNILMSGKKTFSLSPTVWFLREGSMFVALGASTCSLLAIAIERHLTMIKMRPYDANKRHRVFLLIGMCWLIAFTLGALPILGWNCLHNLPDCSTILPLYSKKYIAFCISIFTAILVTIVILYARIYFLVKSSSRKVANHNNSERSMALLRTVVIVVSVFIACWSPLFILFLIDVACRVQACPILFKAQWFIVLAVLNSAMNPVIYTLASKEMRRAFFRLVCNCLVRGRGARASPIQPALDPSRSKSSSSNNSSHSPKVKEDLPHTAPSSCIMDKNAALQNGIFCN
In words: GTP[γ-35S] binding assay, HEK293 T membranes, S1P3 control. It counts as biochemical. The conditions noted are these: cells transfected with S1P3, negative control, FIG. 59D. As for the experimental part:
as §3

Turning to `CCCCCCCC/C=C\CCCCCCCC(=O)OCC(COP(O)(O)=S)OC` (racemic) [OMPT, 1-oleoyl-sn2-O-methyl-rac-glycero-3-phosphothionate], the EC50 with PC-3 cells [1] was about 117 nM; with HT29 cells (Homo sapiens, HT-29) it was under 1000 nM; at LPA1 receptor [4], over 10000 nM; in the experiment on OVCAR3 cells, about 9 nM. Moreover, in the experiment on PC-3 cells [2], the “cellular proliferation and prevention of growth factor withdrawal-induced apoptosis” value is “increase cellular proliferation and prevent growth factor withdrawal-induced apoptosis”. Moreover, in the experiment with HT29 cells (FIG. 3), the “stimulation of calcium mobilization” value was “but not OMPT, stimulates calcium mobilization”. In addition, the “activation in GTP[γ-35S] binding assay” value on LPA1 receptor [3] and on S1P3 receptor was “does not activate” throughout.
